From ChEMBL document CHEMBL5247659, “Design, Structure-Activity Relationships, and In Vivo Evaluation of Potent and Brain-Penetrant Imidazo[1,2-b]pyridazines as Glycogen Synthase Kinase-3β (GSK-3β) Inhibitors” (J Med Chem, 2023)
In brackets after ≈: the same amount, converted by molar mass.

How the values were obtained:
[1] = molecular target: Tyrosine-protein kinase Lyn (Homo sapiens, UniProt P07948); experiment: Inhibition of LynA (unknown origin)
[2] = Cmax in 8 hr fasted C57BL6 mouse at 10 mg/kg, po; assay type: ADME, organism-based; parameters: dose 10 mg/kg, route po; conditions: in vivo
[3] = molecular target: Protein kinase C theta type (Homo sapiens, UniProt Q04759); experiment: Inhibition of PKCtheta (unknown origin)
[4] = molecular target: Mast/stem cell growth factor receptor Kit (Homo sapiens, UniProt P10721); experiment: Inhibition of cKIT (unknown origin)
[5] = molecular target: Serine/threonine-protein kinase pim-1 (Homo sapiens, UniProt P11309); experiment: Inhibition of PIM1 (unknown origin)
[6] = molecular target: Cytoplasmic tyrosine-protein kinase BMX (Homo sapiens, UniProt P51813); experiment: Inhibition of BMX (unknown origin)
P-glycoprotein (ABCB1) = P-glycoprotein (ABCB1) (Homo sapiens, UniProt P08183); experiment: Substrate activity at P-glycoprotein in human Caco-2 cells assessed as efflux ratio of permeability across basolateral to apical side over apical to basolateral side at 3 uM incubated for 2 hrs by LC-MS/MS analysis; assay type: ADME, cell-based
Aurora kinase A = Aurora kinase A (Mus musculus, UniProt P97477); experiment: Inhibition of mouse AURA
Aurora kinase A, sequence (P97477 whole entry): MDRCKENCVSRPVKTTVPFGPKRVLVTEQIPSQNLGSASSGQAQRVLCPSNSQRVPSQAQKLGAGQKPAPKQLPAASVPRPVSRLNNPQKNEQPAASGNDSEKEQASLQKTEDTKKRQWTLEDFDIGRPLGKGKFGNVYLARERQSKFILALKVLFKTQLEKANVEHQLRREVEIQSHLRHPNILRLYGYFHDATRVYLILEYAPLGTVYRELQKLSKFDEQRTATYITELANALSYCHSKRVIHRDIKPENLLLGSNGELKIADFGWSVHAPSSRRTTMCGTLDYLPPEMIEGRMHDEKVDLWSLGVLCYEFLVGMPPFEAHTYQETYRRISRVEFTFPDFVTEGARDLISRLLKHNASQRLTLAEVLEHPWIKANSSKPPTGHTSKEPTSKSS

[7] = Plasma protein binding in human assessed as unbound fraction at 10 uM measured for 5 hrs by equilibrium dialysis based LC-MS/MS analysis; assay type: ADME, cell-free
[8] = Unbound fraction in triple transgenic C57BL6 alzheimer disease model mouse brain homogenate at 30 mg/kg, po measured after 5 hrs; assay type: ADME, organism-based
[9] = molecular target: Interleukin-1 receptor-associated kinase 4 (Homo sapiens, UniProt Q9NWZ3); experiment: Inhibition of IRAK4 (unknown origin)
[10] = molecular target: Glycogen synthase kinase-3 alpha (Homo sapiens, UniProt P49840); experiment: Inhibition of full length GST-tagged human recombinant GSK3-alpha using FL-KRREILSRRP[ps]ERYR-NH2 as substrate incubated for 20 hrs
Glycogen synthase kinase-3 alpha, sequence (P49840 whole entry): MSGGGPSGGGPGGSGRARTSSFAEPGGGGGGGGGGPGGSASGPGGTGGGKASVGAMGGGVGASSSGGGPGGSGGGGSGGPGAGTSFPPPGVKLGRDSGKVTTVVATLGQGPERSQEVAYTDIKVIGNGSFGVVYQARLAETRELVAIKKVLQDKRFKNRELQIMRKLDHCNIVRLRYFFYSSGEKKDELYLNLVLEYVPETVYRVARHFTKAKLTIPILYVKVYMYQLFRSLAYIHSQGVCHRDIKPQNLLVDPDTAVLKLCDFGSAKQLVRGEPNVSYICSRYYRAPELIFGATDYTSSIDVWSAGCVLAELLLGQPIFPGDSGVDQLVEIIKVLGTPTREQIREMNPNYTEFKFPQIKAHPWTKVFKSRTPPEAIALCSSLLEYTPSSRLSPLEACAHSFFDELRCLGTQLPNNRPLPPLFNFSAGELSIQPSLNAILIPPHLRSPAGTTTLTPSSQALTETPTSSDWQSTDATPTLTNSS

[11] = molecular target: Platelet-derived growth factor receptor beta (Homo sapiens, UniProt P09619); experiment: Inhibition of PDGFRbeta (unknown origin)
Platelet-derived growth factor receptor beta, sequence (P09619 whole entry): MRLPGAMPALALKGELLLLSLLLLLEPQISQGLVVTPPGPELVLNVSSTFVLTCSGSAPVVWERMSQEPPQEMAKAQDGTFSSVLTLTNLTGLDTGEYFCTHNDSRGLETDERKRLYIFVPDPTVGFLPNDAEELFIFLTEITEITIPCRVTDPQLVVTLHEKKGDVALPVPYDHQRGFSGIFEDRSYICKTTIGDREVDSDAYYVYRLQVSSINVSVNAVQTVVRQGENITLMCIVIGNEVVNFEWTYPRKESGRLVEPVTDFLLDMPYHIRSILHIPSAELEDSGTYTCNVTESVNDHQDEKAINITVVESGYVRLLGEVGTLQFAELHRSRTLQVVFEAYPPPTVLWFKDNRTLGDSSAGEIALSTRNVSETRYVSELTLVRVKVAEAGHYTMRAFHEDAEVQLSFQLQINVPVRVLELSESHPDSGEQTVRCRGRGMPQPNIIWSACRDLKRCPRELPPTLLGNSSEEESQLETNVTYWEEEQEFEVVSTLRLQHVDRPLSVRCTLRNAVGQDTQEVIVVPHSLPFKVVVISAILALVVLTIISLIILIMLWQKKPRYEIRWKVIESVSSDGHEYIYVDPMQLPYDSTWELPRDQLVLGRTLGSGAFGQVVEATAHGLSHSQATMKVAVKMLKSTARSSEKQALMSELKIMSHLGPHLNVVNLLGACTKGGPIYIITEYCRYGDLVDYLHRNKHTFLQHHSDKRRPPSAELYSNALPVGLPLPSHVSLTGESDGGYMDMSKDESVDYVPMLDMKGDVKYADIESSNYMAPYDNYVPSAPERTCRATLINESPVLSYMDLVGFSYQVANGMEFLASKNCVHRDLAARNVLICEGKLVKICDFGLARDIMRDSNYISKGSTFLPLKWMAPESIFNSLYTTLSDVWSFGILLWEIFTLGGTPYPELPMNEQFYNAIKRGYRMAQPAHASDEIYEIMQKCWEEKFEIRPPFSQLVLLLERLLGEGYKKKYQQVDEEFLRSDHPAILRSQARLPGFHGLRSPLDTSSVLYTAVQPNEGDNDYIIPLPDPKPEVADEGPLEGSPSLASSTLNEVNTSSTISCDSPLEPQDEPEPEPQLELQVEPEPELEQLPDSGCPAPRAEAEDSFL

[12] = Solubility of compound in fasted state simulated intestinal fluid of pH 6.5 at 1 mg/ml measured after 18 to 24 hrs by HPLC-UV based analysis; assay type: ADME; conditions: time 18-24 hrs
[13] = molecular target: AP2-associated protein kinase 1 (Homo sapiens, UniProt Q2M2I8); experiment: Inhibition of AAK1 (unknown origin)
[14] = Drug exposure in triple transgenic C57BL6 alzheimer disease mouse brain at 30 mg/kg, po measured after 5 hrs; assay type: ADME, organism-based; conditions: read-out: Ct
[15] = molecular target: Non-receptor tyrosine-protein kinase TYK2 (Homo sapiens, UniProt P29597); experiment: Inhibition of TYK2 (unknown origin)
[16] = Aqueous solubility of compound in potassium phosphate buffer at pH 1 at 1 mg/ml measured after 18 to 24 hrs by HPLC-UV based analysis; assay type: physicochemical; conditions: time 18-24 hrs
[17] = Plasma protein binding in mouse assessed as unbound fraction at 10 uM measured for 5 hrs by equilibrium dialysis based LC-MS/MS analysis; assay type: ADME, cell-free
[18] = Oral bioavailability in 8 hr fasted C57BL6 mouse at 10 mg/kg; assay type: ADME, organism-based; conditions: in vivo
[19] = Aqueous solubility of compound in potassium phosphate buffer at pH 7.4 at 1 mg/ml measured after 18 to 24 hrs by HPLC-UV based analysis; assay type: physicochemical; conditions: time 18-24 hrs
[20] = Drug exposure in triple transgenic C57BL6 alzheimer disease mouse plasma at 30 mg/kg, po measured after 5 hrs; assay type: ADME, organism-based
[21] = molecular target: Tyrosine-protein kinase ITK/TSK (Homo sapiens, UniProt Q08881); experiment: Inhibition of ITK (unknown origin)
Tyrosine-protein kinase ITK/TSK, sequence (Q08881 whole entry): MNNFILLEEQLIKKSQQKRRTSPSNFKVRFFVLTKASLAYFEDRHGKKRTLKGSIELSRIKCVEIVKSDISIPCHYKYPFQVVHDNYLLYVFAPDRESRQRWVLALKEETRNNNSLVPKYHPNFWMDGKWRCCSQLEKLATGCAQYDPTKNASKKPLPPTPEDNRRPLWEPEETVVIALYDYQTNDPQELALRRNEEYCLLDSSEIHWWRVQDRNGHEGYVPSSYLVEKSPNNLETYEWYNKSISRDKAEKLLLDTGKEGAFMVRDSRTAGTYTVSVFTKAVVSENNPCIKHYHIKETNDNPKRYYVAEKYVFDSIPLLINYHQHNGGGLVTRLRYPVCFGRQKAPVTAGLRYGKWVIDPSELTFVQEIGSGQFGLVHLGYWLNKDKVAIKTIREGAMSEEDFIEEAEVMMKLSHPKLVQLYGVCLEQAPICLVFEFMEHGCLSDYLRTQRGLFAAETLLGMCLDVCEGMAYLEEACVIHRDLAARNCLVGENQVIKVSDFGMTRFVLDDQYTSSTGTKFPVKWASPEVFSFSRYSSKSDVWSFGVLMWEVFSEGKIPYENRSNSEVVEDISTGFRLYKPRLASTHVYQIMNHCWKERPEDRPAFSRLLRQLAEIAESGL

[22] = molecular target: Cyclin-dependent kinase 2 (Homo sapiens, UniProt P24941); experiment: Inhibition of CDK2 (unknown origin)
[23] = molecular target: Tyrosine-protein kinase Lck (Homo sapiens, UniProt P06239); experiment: Inhibition of LCK (unknown origin)
Tyrosine-protein kinase Lck, sequence (P06239 whole entry): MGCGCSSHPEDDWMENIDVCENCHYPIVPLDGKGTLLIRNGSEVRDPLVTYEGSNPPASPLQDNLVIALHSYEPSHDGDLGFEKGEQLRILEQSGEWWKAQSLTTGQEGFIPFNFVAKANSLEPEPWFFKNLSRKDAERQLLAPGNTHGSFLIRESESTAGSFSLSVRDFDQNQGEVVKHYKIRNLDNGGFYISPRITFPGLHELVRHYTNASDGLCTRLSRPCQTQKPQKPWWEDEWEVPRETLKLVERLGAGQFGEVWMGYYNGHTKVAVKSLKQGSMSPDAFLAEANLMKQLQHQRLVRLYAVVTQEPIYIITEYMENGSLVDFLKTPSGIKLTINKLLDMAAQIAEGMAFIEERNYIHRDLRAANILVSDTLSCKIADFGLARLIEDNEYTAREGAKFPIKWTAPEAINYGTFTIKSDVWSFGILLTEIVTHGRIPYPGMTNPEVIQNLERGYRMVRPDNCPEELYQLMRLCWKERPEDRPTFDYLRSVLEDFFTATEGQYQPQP

Mus musculus = experiment: Antialzheimer activity against triple transgenic C57BL6 mouse model assessed as reduction in tau phosphorylation at S396 at 30 mg/kg, po measured 5 hrs post dose by ELISA relative to control; assay type: functional; parameters: scale not given: the % may be the effect or the level left
[24] = Half life in 8 hr fasted C57BL6 mouse at 2 mg/kg, iv; assay type: ADME, organism-based; conditions: in vivo
[25] = Volume of distribution at steady state in 8 hr fasted C57BL6 mouse at 2 mg/kg, iv; assay type: ADME, organism-based; conditions: in vivo, read-out: Vdss
[26] = Ratio of drug level in brain to plasma of triple transgenic C57BL6 alzheimer disease mouse at 30 mg/kg, po measured after 5 hrs; assay type: ADME, organism-based; conditions: read-out: BPR
[27] = Inhibition of tau 4R1N phosphorylation (unknown origin) at S396 residue transfected in human U2OS cells coexpressing GFP-tagged beta catenin incubated overnight by high content imaging assay
[28] = molecular target: Interleukin-1 receptor-associated kinase 1 (Homo sapiens, UniProt P51617); experiment: Inhibition of IRAK1 (unknown origin)
[29] = molecular target: Insulin-like growth factor 1 receptor (Homo sapiens, UniProt P08069); experiment: Inhibition of IGF1R (unknown origin)
[30] = MRT in 8 hr fasted C57BL6 mouse at 2 mg/kg, iv; assay type: ADME, organism-based; conditions: in vivo
[31] = Permeability of compound at pH 7.4 incubated for 4 hrs by PAMPA assay; assay type: ADME; conditions: read-out: permeability
[32] = molecular target: Cyclin-dependent kinase 5 (Homo sapiens, UniProt Q00535); experiment: Inhibition of CDK5 (unknown origin)
[33] = molecular target: Tyrosine-protein kinase SYK (Homo sapiens, UniProt P43405); experiment: Inhibition of SYK (unknown origin)
[34] = Permeability of compound at pH 5.5 incubated for 4 hrs by PAMPA assay; assay type: ADME; conditions: read-out: permeability
[35] = Solubility of compound in fed state simulated intestinal fluid of pH 5 at 1 mg/ml measured after 18 to 24 hrs by HPLC-UV based analysis; assay type: ADME; conditions: time 18-24 hrs
[36] = molecular target: Casein kinase II subunit alpha (Homo sapiens, UniProt P68400); experiment: Inhibition of CK2A1 (unknown origin)
[37] = AUC tot in 8 hr fasted C57BL6 mouse at 10 mg/kg, po; assay type: ADME, organism-based; parameters: dose 10 mg/kg, route po; conditions: in vivo
[38] = molecular target: Mitogen-activated protein kinase 14 (Homo sapiens, UniProt Q16539); experiment: Inhibition of p38alpha (unknown origin)
[39] = Permeability across basolateral to apical side in human Caco-2 cells at 3 uM incubated for 2 hrs by LC-MS/MS analysis; assay type: ADME, cell-based; conditions: read-out: permeability
[40] = molecular target: Tyrosine-protein kinase BTK (Homo sapiens, UniProt Q06187); experiment: Inhibition of BTK (unknown origin)
[41] = Clearance in 8 hr fasted C57BL6 mouse at 2 mg/kg, iv; assay type: ADME, organism-based; conditions: in vivo
[42] = molecular target: MAP kinase-activated protein kinase 2 (Homo sapiens, UniProt P49137); experiment: Inhibition of MK2 (unknown origin)
MAP kinase-activated protein kinase 2, sequence (P49137 whole entry): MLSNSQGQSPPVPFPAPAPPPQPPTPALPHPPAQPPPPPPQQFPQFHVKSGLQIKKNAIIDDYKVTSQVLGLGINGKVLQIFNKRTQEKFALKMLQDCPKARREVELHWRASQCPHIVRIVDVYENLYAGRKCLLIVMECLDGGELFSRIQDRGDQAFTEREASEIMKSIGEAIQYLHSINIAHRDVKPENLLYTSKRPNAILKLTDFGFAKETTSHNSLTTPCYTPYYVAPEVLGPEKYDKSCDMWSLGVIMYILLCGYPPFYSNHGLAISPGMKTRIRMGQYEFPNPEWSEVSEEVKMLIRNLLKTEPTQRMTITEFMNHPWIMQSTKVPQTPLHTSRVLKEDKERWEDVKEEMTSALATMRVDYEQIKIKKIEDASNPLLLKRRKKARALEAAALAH

[43] = Permeability across apical to basolateral side in human Caco-2 cells at 3 uM incubated for 2 hrs by LC-MS/MS analysis; assay type: ADME, cell-based; conditions: read-out: permeability
[44] = molecular target: Ribosomal protein S6 kinase alpha-1 (Homo sapiens, UniProt Q15418); experiment: Inhibition of RSK1 (unknown origin)
Ribosomal protein S6 kinase alpha-1, sequence (Q15418 whole entry): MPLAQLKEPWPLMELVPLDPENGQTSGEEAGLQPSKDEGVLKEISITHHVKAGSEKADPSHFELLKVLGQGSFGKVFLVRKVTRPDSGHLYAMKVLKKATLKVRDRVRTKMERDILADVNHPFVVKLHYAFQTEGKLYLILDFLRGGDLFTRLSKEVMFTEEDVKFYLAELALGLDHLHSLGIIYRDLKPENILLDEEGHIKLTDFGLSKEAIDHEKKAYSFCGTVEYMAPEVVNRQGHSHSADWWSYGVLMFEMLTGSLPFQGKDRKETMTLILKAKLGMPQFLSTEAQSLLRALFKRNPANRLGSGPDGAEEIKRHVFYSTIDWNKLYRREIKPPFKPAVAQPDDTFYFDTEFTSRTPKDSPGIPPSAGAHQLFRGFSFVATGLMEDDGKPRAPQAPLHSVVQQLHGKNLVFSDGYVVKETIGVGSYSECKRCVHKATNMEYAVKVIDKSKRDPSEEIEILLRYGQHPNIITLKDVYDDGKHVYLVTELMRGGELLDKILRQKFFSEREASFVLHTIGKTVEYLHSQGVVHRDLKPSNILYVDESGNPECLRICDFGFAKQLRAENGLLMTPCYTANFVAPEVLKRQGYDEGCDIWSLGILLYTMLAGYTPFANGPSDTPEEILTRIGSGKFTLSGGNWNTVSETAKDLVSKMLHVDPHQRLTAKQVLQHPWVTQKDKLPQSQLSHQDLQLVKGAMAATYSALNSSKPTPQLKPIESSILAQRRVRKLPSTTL

[45] = molecular target: Casein kinase II subunit alpha' (Homo sapiens, UniProt P19784); experiment: Inhibition of CK2A2 (unknown origin)
Casein kinase II subunit alpha', sequence (P19784 whole entry): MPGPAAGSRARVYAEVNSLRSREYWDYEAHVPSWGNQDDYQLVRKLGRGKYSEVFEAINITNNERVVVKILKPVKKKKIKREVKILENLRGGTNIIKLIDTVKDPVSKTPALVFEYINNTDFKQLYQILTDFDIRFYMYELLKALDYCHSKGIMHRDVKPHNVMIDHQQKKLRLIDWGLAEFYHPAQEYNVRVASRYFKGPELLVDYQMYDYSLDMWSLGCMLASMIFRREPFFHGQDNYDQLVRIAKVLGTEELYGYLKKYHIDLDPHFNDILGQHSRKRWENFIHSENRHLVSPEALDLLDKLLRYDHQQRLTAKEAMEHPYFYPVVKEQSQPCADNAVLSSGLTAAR

[46] = Inhibition of N-terminal 6-His tagged human recombinant GSK3-beta H355L mutant using FL-KRREILSRRP[ps]ERYR-NH2 as substrate incubated for 20 hrs
[47] = Metabolic stability in mouse liver microsomes assessed as parent compound remaining at 0.5 uM incubated for 10 mins by LC-MS/MS analysis; assay type: ADME, Microsome; conditions: read-out: Stability
[48] = molecular target: Tyrosine-protein kinase JAK1 (Homo sapiens, UniProt P23458); experiment: Inhibition of JAK1 (unknown origin)
[49] = Unbound brain-to-plasma concentration ratio in triple transgenic C57BL6 alzheimer disease mouse model at 30 mg/kg, po measured after 5 hrs; assay type: ADME, organism-based; conditions: read-out: K(p,uu,brain)
[50] = molecular target: Tyrosine-protein kinase JAK2 (Homo sapiens, UniProt O60674); experiment: Inhibition of JAK2 (unknown origin)
[51] = molecular target: Tyrosine-protein kinase TXK (Homo sapiens, UniProt P42681); experiment: Inhibition of TXK (unknown origin)
Aurora kinase B = Aurora kinase B (Homo sapiens, UniProt Q96GD4); experiment: Inhibition of Aurora B (unknown origin)
Aurora kinase B, sequence (Q96GD4 whole entry): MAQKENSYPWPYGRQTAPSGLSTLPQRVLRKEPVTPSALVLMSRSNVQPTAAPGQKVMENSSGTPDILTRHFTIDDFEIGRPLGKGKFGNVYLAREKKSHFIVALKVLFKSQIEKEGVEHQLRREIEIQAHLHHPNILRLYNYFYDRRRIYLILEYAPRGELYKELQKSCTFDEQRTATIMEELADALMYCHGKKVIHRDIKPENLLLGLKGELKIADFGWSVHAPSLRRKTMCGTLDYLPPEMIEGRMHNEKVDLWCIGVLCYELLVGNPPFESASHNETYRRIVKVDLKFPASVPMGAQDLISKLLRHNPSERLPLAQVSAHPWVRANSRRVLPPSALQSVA

[52] = Metabolic stability in human liver microsomes assessed as parent compound remaining at 0.5 uM incubated for 10 mins by LC-MS/MS analysis; assay type: ADME, Microsome; conditions: read-out: Stability

CC1CN(c2ccncc2NC(=O)c2ccnn3cc(-c4ccccc4)nc23)CCO1 (racemic)
IC50 [1]: > 2000 nM
Cmax [2]: 7.8 µM
IC50 [3]: 360 nM
IC50 [4]: > 50 µM
IC50 [5]: 380 nM
IC50 [6]: > 2000 nM
efflux ratio at 2 h, 3 µM (P-glycoprotein (ABCB1)): < 1
IC50 (Aurora kinase A): > 50 µM
fraction unbound at 5 h, 10 µM [7]: 0.008
fraction unbound at 5 h [8]: 0.009
IC50 [9]: > 2000 nM
IC50 [10]: 0.35 nM
IC50 [11]: > 50 µM
solubility [12]: 21 µg/mL (≈ 50.7 µM)
IC50 [13]: 200 nM
concentration at 5 h [14]: 1300 nM
IC50 [15]: > 2000 nM
solubility [16]: 1220 µg/mL (≈ 2940 µM)
fraction unbound at 5 h, 10 µM [17]: 0.009
bioavailability [18]: 64%
solubility [19]: 14 µg/mL (≈ 33.8 µM)
concentration at 5 h [20]: 3.8 µM
IC50 [21]: > 2000 nM
IC50 [22]: 1400 nM
IC50 [23]: > 2000 nM
Activity (Mus musculus): 52%
half-life [24]: 312 min
Vd [25]: 1.1 L/kg
Kp at 5 h [26]: 0.34
IC50 [27]: 58 nM
IC50 [28]: > 2000 nM
IC50 [29]: > 50 µM
MRT [30]: 4.8 h
Papp at 4 h [31]: 80.6 ×10⁻⁶ cm/s
IC50 [32]: 6.4 µM
IC50 [33]: > 2000 nM
Papp at 4 h [34]: 100 ×10⁻⁶ cm/s
solubility [35]: 788 µg/mL (≈ 1900 µM)
IC50 [36]: > 2000 nM
AUC [37]: 68.3 µM·h
IC50 [38]: > 2000 nM
Papp B→A at 2 h, 3 µM [39]: 7.1 ×10⁻⁶ cm/s
IC50 [40]: > 2000 nM
clearance [41]: 3.8 mL/min/kg
IC50 [42]: > 50 µM
Papp A→B at 2 h, 3 µM [43]: 13.8 ×10⁻⁶ cm/s
IC50 [44]: > 50 µM
IC50 [45]: > 2000 nM
IC50 [46]: 0.73 nM
remaining at 10 min, 0.5 µM [47]: 7%
IC50 [48]: > 2000 nM
Kp uu at 5 h [49]: 0.34
IC50 [50]: > 2000 nM
IC50 [51]: > 2000 nM
IC50 (Aurora kinase B): > 2000 nM
remaining at 10 min, 0.5 µM [52]: 17%
